Measured values reported in patent US5112807A, “Compound "Leualacin", its preparation and its use in the treatment of cardiovascular disorders” (Sankyo Company, Limited, priority 1988, dated 1992).

Tests used:
[1] = test system: tenia caecum; test: Calcium antagonizing action in the tenia caecum; type: cell-based, guinea pigs; conditions: 30 minutes incubation, calcium chloride-induced contraction
Experimental: The calcium antagonizing activity in the tenia caecum was measured according to the method of M. Spedding [Naunyn-Schmiedeberg's Arch. Pharmacol. 318, 234-240(1982)]. Male guinea pigs weighing 250 to 300 g were laparotomized under pentobarbital anesthesia and the tenia was immediately removed from the caecum. The tenia was cut into strips of 6-7 cm length and suspended in a Magnus vessel filled with 20 ml of Tyrode's solution without calcium aerated with a mixed gas (O2 95%-CO2 5% by volume). After the specimen had eguilibrated by standing for 1 hour under the above conditions, 0.2 ml each of 30, 100 and 300 mM aqueous calcium chloride solutions were cumulatively added at 3 minute intervals and the contraction of the specimen was measured. After the measurements, the specimen was washed twice with Tyrode's solution without calcium and left for 30 minutes. The specimen was then incubated with Leualacin for 30 minutes, after which 0.2 ml each of 30, 100 and 300 mM calcium chloride solutions were cumulatively added at 3 minute intervals in the same manner as above, and the contraction was again measured. The contraction after the treatment with the Leualacin solution was deducted from that after the treatment with the calcium chloride solution alone and the value obtained was divided by the contraction after the treatment with the calcium chloride solution alone, to give the antagonizing rate.

[2] = Chemical and physical properties: description and solubility; type: physicochemical
Excerpt: Leualacin has the molecular structure shown above and the following chemical and physical properties: […]

[3] = test system: SHR (spontaneously hypertensive rats); test: Antihypertensive activity in SHR; type: in vivo; conditions: conscious male SHR
Experimental: Male SHR (spontaneously hypertensive rats), 15 weeks old, were anesthetized with sodium pentobarbital (50 mg/kg intraperitoneally). and a polyethylene cannula was inserted through the left femoral artery into the abdominal aorta. The other end of the cannula was led out of the body and fixed at the back of the neck. One week after the operation, when the animal had recovered from the stress of the surgery, the other end of the cannula was connected to a blood pressure transducer, which was constructed according to the directions of Laffan et al. [Laffan, P. J., Peterson A., Hitch S. W. and Jeunelot C., Cardiovascular Res. 6, 319-324 (1972)], but with slight modifications. The blood pressure and heart rate of the conscious and unstressed SHR were measured. After the blood pressure and the heart rate had stabilised for more than one hour, the test drug was administered by gavage. After administration of the test sample, the blood pressure and the heart rate were measured every 15 minutes over a […] is shown in Table 2.

[4] = test system: mice; test: Acute toxicity; type: in vivo; conditions: orally, 200 mg/kg
Experimental: No toxicity was noted when Leualacin was orally administered to mice at a dose of 200 mg/kg, which is far in excess of any reasonable therapeutic dose.

[5] = target: T1, calcium channel (3H-nitrendipine binding to microsome fraction prepared from porcine heart) (Sus scrofa, UniProt A0A8W4FNC0); test: Radioligand binding assay: inhibition of 3H-nitrendipine binding to microsomes; conditions: 200 PM 3H-nitrendipine, 25° C., 30 minutes, pH 7.4, read-out: ID50, inhibition of binding of 3H-nitrendipine to microsomes (converted)
T1 construct: 15 to 20 μg of a microsome fraction prepared from porcine heart; from tissue; host or cells: porcine heart microsome fraction
Excerpt: The progress of the cultivation and the amount of Leualacin produced as the culture proceeds can be determined by a radio ligand binding assay method, that is, for example, the method of […] and R. E. Oswald [Journal of Biological Chemistry, 260, 8456-8464 (1985)] which is based on the ability of Leualacin to inhibit the binding of ^3 H-nitrendipine to microsomes. High performance liquid chromatography may also be used. […] This experiment used a radioligand binding assay method, which is a modification of the method of […] and R. E. Oswald [Journal of Biological Chemistry, 260, 8456-8464 [(1985)], to determine the activity which inhibits the binding of ^3 H-nitrendipine to microsomes. The reaction was carried out at 25° C. for 30 minutes in 1 ml of a reaction mixture comprising 15 to 20 μg of a microsome fraction prepared from porcine heart, 200 PM ^3 H-nitrendipine (NEN-Dupont Pharmaceuticals, specific activity 88.1 Ci/mM), 50 mM NaOH-HEPES buffer (pH 7.4) and 0.5% by volume ethanol. (HEPES is N-2-hydroxyethylpiperazine-N'-2-ethanesulfonic acid). […] The glass-fibre filter was then put in a vial and OPTIFLUOR (Packard Co., Ltd.) was used as the scintillator and the radioactivity (as disintegrations per minute) was measured.

T1 sequence (A0A8W4FNC0 1-2067): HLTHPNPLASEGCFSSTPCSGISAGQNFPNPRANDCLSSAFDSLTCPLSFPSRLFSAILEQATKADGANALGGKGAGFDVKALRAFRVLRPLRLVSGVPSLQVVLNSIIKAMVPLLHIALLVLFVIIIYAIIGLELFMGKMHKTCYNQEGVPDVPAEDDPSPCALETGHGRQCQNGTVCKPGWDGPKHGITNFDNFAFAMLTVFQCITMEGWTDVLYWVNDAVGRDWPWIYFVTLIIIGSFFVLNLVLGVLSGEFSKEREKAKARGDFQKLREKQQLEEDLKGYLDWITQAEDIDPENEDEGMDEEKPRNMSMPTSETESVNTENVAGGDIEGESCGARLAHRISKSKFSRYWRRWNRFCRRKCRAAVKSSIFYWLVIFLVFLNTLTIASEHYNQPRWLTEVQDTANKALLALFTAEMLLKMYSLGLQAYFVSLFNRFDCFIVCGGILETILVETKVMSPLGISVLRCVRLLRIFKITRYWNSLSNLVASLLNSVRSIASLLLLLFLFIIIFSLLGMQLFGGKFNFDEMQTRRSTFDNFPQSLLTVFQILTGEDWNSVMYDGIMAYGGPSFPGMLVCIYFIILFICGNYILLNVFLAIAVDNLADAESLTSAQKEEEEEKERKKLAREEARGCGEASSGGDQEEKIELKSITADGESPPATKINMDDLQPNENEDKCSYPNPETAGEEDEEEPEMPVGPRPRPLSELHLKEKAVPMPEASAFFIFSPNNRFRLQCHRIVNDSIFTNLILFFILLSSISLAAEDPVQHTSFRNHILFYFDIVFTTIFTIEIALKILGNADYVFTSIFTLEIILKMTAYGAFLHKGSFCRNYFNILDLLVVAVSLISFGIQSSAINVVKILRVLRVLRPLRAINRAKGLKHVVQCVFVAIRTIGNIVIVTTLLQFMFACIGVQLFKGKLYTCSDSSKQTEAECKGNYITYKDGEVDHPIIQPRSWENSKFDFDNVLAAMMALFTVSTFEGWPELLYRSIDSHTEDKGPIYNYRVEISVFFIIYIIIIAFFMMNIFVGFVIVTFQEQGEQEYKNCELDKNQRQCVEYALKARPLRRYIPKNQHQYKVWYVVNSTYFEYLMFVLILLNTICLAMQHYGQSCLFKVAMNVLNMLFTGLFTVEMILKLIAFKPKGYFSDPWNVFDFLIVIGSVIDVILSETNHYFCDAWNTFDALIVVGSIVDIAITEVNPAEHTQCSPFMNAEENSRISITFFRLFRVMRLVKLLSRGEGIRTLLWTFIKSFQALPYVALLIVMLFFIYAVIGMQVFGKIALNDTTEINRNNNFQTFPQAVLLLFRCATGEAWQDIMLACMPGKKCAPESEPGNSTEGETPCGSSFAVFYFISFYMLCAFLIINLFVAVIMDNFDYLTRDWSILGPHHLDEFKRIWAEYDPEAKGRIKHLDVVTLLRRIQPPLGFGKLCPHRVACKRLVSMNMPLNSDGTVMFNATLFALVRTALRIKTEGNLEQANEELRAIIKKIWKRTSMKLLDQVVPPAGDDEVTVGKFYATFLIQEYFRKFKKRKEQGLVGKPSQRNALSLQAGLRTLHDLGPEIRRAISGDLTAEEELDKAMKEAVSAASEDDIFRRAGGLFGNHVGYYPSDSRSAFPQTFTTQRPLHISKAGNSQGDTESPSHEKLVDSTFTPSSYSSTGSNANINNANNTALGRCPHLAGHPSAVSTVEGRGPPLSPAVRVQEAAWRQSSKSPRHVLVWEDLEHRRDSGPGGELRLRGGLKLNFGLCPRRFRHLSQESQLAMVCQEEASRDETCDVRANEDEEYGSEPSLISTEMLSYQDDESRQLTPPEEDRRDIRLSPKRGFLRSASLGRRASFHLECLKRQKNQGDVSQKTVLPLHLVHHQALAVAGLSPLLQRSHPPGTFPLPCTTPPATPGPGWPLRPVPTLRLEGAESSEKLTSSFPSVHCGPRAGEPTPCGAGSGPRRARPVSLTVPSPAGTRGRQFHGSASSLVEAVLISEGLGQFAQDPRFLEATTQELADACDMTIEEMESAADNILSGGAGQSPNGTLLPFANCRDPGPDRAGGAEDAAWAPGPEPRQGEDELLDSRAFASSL

CC(C)CC1NC(=O)C(CC(C)C)OC(=O)CCNC(=O)C(Cc2ccccc2)N(C)C(=O)C(CC(C)C)OC1=O (centres unmarked) [Leualacin, 11-benzyl-2,5,8-triisobutyl-10-methyl-1,7-dioxa-4,10,13-triazacyclohexadec ane-3,6,9,12,16-pentone]
Antagonizing rate (%) ([1]; Leualacin 10^-6 g/ml): 97% | Antagonizing rate (%) ([1]; Leualacin 10^-7 g/ml): 73% | Antagonizing rate (%) ([1]; Leualacin 10^-8 g/ml): 22% | Antagonizing rate (%) ([1]; Leualacin 10^-9 g/ml): 0% | Description [2]: neutral, fat-soluble | Solubility in organic solvents ([2]; methanol, acetone, chloroform and ethyl acetate): Soluble | Solubility in water ([2]; water): insoluble | Decrease of blood pressure (mmHg) ([3]; 100 μg/kg by gavage): 44 mmHg | Decrease of blood pressure (mmHg) ([3]; 300 μg/kg by gavage): 57 mmHg | Acute toxicity [4]: No toxicity | IC50 [5]: 1730 nM
